# How the values were obtained:
# [1] = test system: Collagen Type II (CII) induced arthritis in rats; test: Preventive effect on Collagen Type II (CII) induced arthritis in rats; assay type: in vivo, Rat, SD strain
# Description: Inflammation-induced agent: Collagen Type II was dissolved in 0.1 mol/L acetic acid to make final concentration be 2 mg/ml collagen solution, and held in 4° C. overnight. The Collagen Type II solution was added to cold Freund's Adjuvant Incomplete by drops (Collagen Type II: Freund's Adjuvant Incomplete=1:1) on the next day, emulsified completely (Type II Collagen solution: Freund's Adjuvant Incomplete=1:1), and the final concentration of Collagen Type II was 1 mg/ml. The Collagen Type II emulsion was reserved in a refrigerator at 4° C.
# Immune method: Each rat was immunized by being injected subcutaneously at 5 points on the back with 0.1 ml emulsion in each point, total of […] (contained 0.5 mg Collagen Type II), and immunized again in the same way 7 days later. An emulsion of 0.1 mol/L acetic acid and Freund's Adjuvant Incomplete was injected in control group. The swell values of the arthrosis in right hind ankle and foot were measured respectively by using a hydroplethismometer before injection and 20 days after immunization.
# The Collagen Type II solution, which had been dissolved in acetic acid and held overnight, was adjusted to concentration 2 mg/ml, then added by drops slowly to Freund's Adjuvant Incomplete in proportion of 1:1. After the mixture was emulsified completely, each rat was injected subcutaneously at 5 points on the back with 0.1 ml emulsion in each point (total 0.5 ml in each rat, containing 0.5 mg Collagen Type II) for the first immunization. 7 days later, the second immunization was repeated in the same way.
# The animals were divided into large dose group: Ginsenoside Compound-K, 10 mg/kg, iv, medium dose group: Ginsenoside Compound-K, 5 mg/kg, iv, small dose group: Ginsenoside Compound-K, 2.5 mg/kg, iv, Tripterygium Wilfordii Hook group: 1.5 mg/kg, po-, Enbrel group: 9 mg/kg, sc and blank control group: physiological saline 10 mg/kg, iv. The animals of administration groups were administered at the first immunization and stopped administering 8 days after the first immunization. The swell value of arthrosis in ankle and foot was measured by using hydroplethismometer before immunization and on day 20, 22, 24, 27 and 29 after the first immunization respectively. Swell rate and inhibition rate were calculated by the same method as the foregoing. Differences among groups were compared with t test. When the treatment finished, the arthroses in ankle and foot were taken for pathological examination.
# [2] = test system: carrageenan-induced acute inflammation in rats; test: Carrageenan-induced paw edema in rats; assay type: in vivo, Rat, SD strain
# Description: Animals were firstly divided into large dose group: 10 mg/kg, iv, medium dose group: 5 mg/kg, iv, small dose group: 2.5 mg/kg, iv, an Indomethacin group: 1 mg/kg, po and a blank control group: physiological saline 10 mg/kg, iv. The animals were administered by the foregoing method for 3 days. The volume of the right hind paw of the rats was measured using hydroplethismometer before inflammation induced. 1 hour after the last administration, 0.1 ml 1% carrageenan was injected into the plantar surface of the right hind paw in order to induce inflammation. The volume of the right hind paw of the rats was measured by hydroplethismometer every other hour thereafter respectively. Swell rate and inhibition rate were calculated by the same method as above. Differences among groups were compared with t test.
structure (smiles),measurement,setting,value
"CC(C)=CCC[C@](C)(O[C@@H]1O[C@H](CO)[C@@H](O)[C@H](O)[C@H]1O)[C@H]1CC[C@]2(C)[C@@H]1[C@H](O)C[C@@H]1[C@@]3(C)CC[C@H](O)C(C)(C)[C@@H]3CC[C@]12C [Ginsenoside Compound-K, ginsenoside Compound-K]",swell value,"[1]; 2.5 mg/kg iv, 0 day",1.09 ± 0.04 mL
same,inhibition rate,"[1]; 2.5 mg/kg iv, 20 day",<23.26> %
same,swell rate,"[1]; 2.5 mg/kg iv, 20 day",(40.29 ± 18.03) %
same,swell value,"[1]; 2.5 mg/kg iv, 20 day",1.39 ± 0.24 mL
same,inhibition rate,"[1]; 2.5 mg/kg iv, 22 day",<24.39> %
same,swell rate,"[1]; 2.5 mg/kg iv, 22 day",(38.98 ± 18.96) %
same,swell value,"[1]; 2.5 mg/kg iv, 22 day",1.38 ± 0.24 mL
same,inhibition rate,"[1]; 2.5 mg/kg iv, 24 day",<25.92> %
same,swell rate,"[1]; 2.5 mg/kg iv, 24 day",(38.92 ± 15.07) %
same,swell value,"[1]; 2.5 mg/kg iv, 24 day",1.37 ± 0.24 mL
same,inhibition rate,"[1]; 2.5 mg/kg iv, 27 day",<27.08> %
same,swell rate,"[1]; 2.5 mg/kg iv, 27 day",(36.93 ± 13.02) %
same,swell value,"[1]; 2.5 mg/kg iv, 27 day",1.35 ± 0.22 mL
same,inhibition rate,"[1]; 2.5 mg/kg iv, 29 day",<27.60> %
same,swell rate,"[1]; 2.5 mg/kg iv, 29 day",(31.75 ± 13.70) %
same,swell value,"[1]; 2.5 mg/kg iv, 29 day",1.33 ± 0.17 mL
same,swell value,"[1]; 5 mg/kg iv, 0 day",1.11 ± 0.06 mL
same,inhibition rate,"[1]; 5 mg/kg iv, 20 day",<29.01> %
same,swell rate,"[1]; 5 mg/kg iv, 20 day",(37.27 ± 15.30) %
same,swell value,"[1]; 5 mg/kg iv, 20 day",1.43 ± 0.23 mL
same,inhibition rate,"[1]; 5 mg/kg iv, 22 day",<32.11> %
same,swell rate,"[1]; 5 mg/kg iv, 22 day",(35.00 ± 15.12) %
same,swell value,"[1]; 5 mg/kg iv, 22 day",1.41 ± 0.22 mL
same,inhibition rate,"[1]; 5 mg/kg iv, 24 day",<31.56> %
same,swell rate,"[1]; 5 mg/kg iv, 24 day",(35.95 ± 11.21) %
same,swell value,"[1]; 5 mg/kg iv, 24 day",1.45 ± 0.17 mL
same,inhibition rate,"[1]; 5 mg/kg iv, 27 day",<31.57> %
same,swell rate,"[1]; 5 mg/kg iv, 27 day",(34.66 ± 13.01) %
same,swell value,"[1]; 5 mg/kg iv, 27 day",1.41 ± 0.23 mL
same,inhibition rate,"[1]; 5 mg/kg iv, 29 day",<29.04> %
same,swell rate,"[1]; 5 mg/kg iv, 29 day",(31.12 ± 13.81) %
same,swell value,"[1]; 5 mg/kg iv, 29 day",1.39 ± 0.18 mL
same,swell value,"[1]; 10 mg/kg iv, 0 day",1.08 ± 0.07 mL
same,inhibition rate,"[1]; 10 mg/kg iv, 20 day",<32.97> %
same,swell rate,"[1]; 10 mg/kg iv, 20 day",(35.19 ± 19.75) %
same,swell value,"[1]; 10 mg/kg iv, 20 day",1.37 ± 0.26 mL
same,inhibition rate,"[1]; 10 mg/kg iv, 22 day",<47.51> %
same,swell rate,"[1]; 10 mg/kg iv, 22 day",(27.06 ± 19.03) %
same,swell value,"[1]; 10 mg/kg iv, 22 day",1.30 ± 0.23 mL
same,inhibition rate,"[1]; 10 mg/kg iv, 24 day",<48.29> %
same,swell rate,"[1]; 10 mg/kg iv, 24 day",(27.16 ± 16.39) %
same,swell value,"[1]; 10 mg/kg iv, 24 day",1.31 ± 0.21 mL
same,inhibition rate,"[1]; 10 mg/kg iv, 27 day",<44.61> %
same,swell rate,"[1]; 10 mg/kg iv, 27 day",(28.05 ± 14.52) %
same,swell value,"[1]; 10 mg/kg iv, 27 day",1.32 ± 0.19 mL
same,inhibition rate,"[1]; 10 mg/kg iv, 29 day",<34.19> %
same,swell rate,"[1]; 10 mg/kg iv, 29 day",(28.86 ± 19.06) %
same,swell value,"[1]; 10 mg/kg iv, 29 day",1.32 ± 0.23 mL
same,overall preventive effect on Collagen Type II induced arthritis,"[1]; rats, 10, 5, 2.5 mg/kg iv",able to prevent Collagen Type II induced arthritis
same,swell value,"[2]; 2.5 mg/kg iv, 0 h",1.33 ± 0.08 mL
same,inhibition rate,"[2]; 2.5 mg/kg iv, 1 h",<13.97> %
same,swell rate,"[2]; 2.5 mg/kg iv, 1 h",(20.22 ± 9.99) %
same,swell value,"[2]; 2.5 mg/kg iv, 1 h",1.59 ± 0.08 mL
same,inhibition rate,"[2]; 2.5 mg/kg iv, 2 h",<8.80> %
same,swell rate,"[2]; 2.5 mg/kg iv, 2 h",(29.40 ± 12.71) %
same,swell value,"[2]; 2.5 mg/kg iv, 2 h",1.71 ± 0.13 mL
same,inhibition rate,"[2]; 2.5 mg/kg iv, 3 h",<16.54> %
same,swell rate,"[2]; 2.5 mg/kg iv, 3 h",(34.80 ± 14.01) %
same,swell value,"[2]; 2.5 mg/kg iv, 3 h",1.79 ± 0.14 mL
same,inhibition rate,"[2]; 2.5 mg/kg iv, 4 h",<24.08> %
same,swell rate,"[2]; 2.5 mg/kg iv, 4 h",(29.49 ± 13.86) %
same,swell value,"[2]; 2.5 mg/kg iv, 4 h",1.71 ± 0.12 mL
same,inhibition rate,"[2]; 2.5 mg/kg iv, 5 h",<15.78> %
same,swell rate,"[2]; 2.5 mg/kg iv, 5 h",(31.22 ± 14.12) %
same,swell value,"[2]; 2.5 mg/kg iv, 5 h",1.74 ± 0.12 mL
same,swell value,"[2]; 5 mg/kg iv, 0 h",1.39 ± 0.12 mL
same,inhibition rate,"[2]; 5 mg/kg iv, 1 h",<49.51> %
same,swell rate,"[2]; 5 mg/kg iv, 1 h",(11.87 ± 6.23) %
same,swell value,"[2]; 5 mg/kg iv, 1 h",1.55 ± 0.11 mL
same,inhibition rate,"[2]; 5 mg/kg iv, 2 h",<42.44> %
same,swell rate,"[2]; 5 mg/kg iv, 2 h",(18.56 ± 9.77) %
same,swell value,"[2]; 5 mg/kg iv, 2 h",1.64 ± 0.09 mL
same,inhibition rate,"[2]; 5 mg/kg iv, 3 h",<32.62> %
same,swell rate,"[2]; 5 mg/kg iv, 3 h",(28.09 ± 11.34) %
same,swell value,"[2]; 5 mg/kg iv, 3 h",1.77 ± 0.12 mL
same,inhibition rate,"[2]; 5 mg/kg iv, 4 h",<48.22> %
same,swell rate,"[2]; 5 mg/kg iv, 4 h",(20.11 ± 11.20) %
same,swell value,"[2]; 5 mg/kg iv, 4 h",1.66 ± 0.13 mL
same,inhibition rate,"[2]; 5 mg/kg iv, 5 h",<53.80> %
same,swell rate,"[2]; 5 mg/kg iv, 5 h",(17.13 ± 10.13) %
same,swell value,"[2]; 5 mg/kg iv, 5 h",1.62 ± 0.11 mL
same,swell value,"[2]; 10 mg/kg iv, 0 h",1.42 ± 0.10 mL
same,inhibition rate,"[2]; 10 mg/kg iv, 1 h",<72.87> %
same,swell rate,"[2]; 10 mg/kg iv, 1 h",(6.38 ± 7.44) %
same,swell value,"[2]; 10 mg/kg iv, 1 h",1.51 ± 0.10 mL
same,inhibition rate,"[2]; 10 mg/kg iv, 2 h",<56.96> %
same,swell rate,"[2]; 10 mg/kg iv, 2 h",(13.87 ± 8.55) %
same,swell value,"[2]; 10 mg/kg iv, 2 h",1.62 ± 0.11 mL
same,inhibition rate,"[2]; 10 mg/kg iv, 3 h",<61.49> %
same,swell rate,"[2]; 10 mg/kg iv, 3 h",(16.06 ± 12.41) %
same,swell value,"[2]; 10 mg/kg iv, 3 h",1.65 ± 0.16 mL
same,inhibition rate,"[2]; 10 mg/kg iv, 4 h",<70.38> %
same,swell rate,"[2]; 10 mg/kg iv, 4 h",(11.51 ± 9.76) %
same,swell value,"[2]; 10 mg/kg iv, 4 h",1.58 ± 0.14 mL
same,inhibition rate,"[2]; 10 mg/kg iv, 5 h",<78.23> %
same,swell rate,"[2]; 10 mg/kg iv, 5 h",(8.07 ± 10.88) %
same,swell value,"[2]; 10 mg/kg iv, 5 h",1.53 ± 0.12 mL
same,overall effect on carrageenan-induced acute inflammation,"[2]; rats, 10, 5, 2.5 mg/kg iv",able to inhibit carrageenan-induced acute inflammation in rats obviously

# Source: US20090281049A1, “New use of ginsenoside compound-k in manufacturing medicaments” (priority 2006, published 2009)
